Test results published in patent US9018395B2, “Pyrazolopyridine and pyrazolopyrimidine derivatives as melanocortin-4 receptor modulators” (Université de Montréal, priority 2011, dated 2015).
Non-standard residues stand in square brackets, D forms with d. Nle = CCCC[C@H](N)C(=O)O

Key:
[1] = target: T1, wild-type human melanocortin 4 receptor (WT-hMC4R) (Homo sapiens, UniProt P32245); test: Cyclic AMP assay (HTRF), antagonist competition against NDP-α-MSH; assay type: cell-based; conditions: HEK293T cells expressing double-tagged WT-hMC4R; cAMP accumulation; 1 hour compound then 4 nM NDP-α-MSH 30 min
T1 construct: expressed in transfected cells; cDNA from UMR cDNA resource center
Outline: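 HEK293T cells stably expressing N-terminal 3xHA, C-terminal venus-YFP tagged WT-hMC4R, in D-PBS with 0.75 mM IBMX; compound (0.01 nM-10 μM) 1 h at 37° C, then 4 nM NDP-α-MSH 30 min. cAMP by HTRF competitive immunoassay; IC50 from sigmoidal variable-slope fit.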

[2] = system: MC4R/MC3R; conditions: cited from earlier work
[3] = system: MC4R; conditions: cited from earlier work
[4] = in vivo; cited from earlier work
[5] = system: MC4R/MC5R; conditions: cited from earlier work

T1 sequence (P32245 whole entry): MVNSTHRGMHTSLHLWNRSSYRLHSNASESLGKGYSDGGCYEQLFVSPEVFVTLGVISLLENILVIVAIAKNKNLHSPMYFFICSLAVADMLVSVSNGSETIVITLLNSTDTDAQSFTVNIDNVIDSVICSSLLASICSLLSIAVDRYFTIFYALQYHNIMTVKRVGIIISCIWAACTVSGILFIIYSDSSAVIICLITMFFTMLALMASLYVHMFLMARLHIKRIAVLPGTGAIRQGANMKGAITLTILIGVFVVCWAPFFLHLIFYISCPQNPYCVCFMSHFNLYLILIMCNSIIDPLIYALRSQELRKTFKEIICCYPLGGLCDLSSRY

IC50 [1]	Compound	further results
1000 to 5000 nM	COc1ccc(-c2nn3ccc(C(=O)N(CCC(C)C)CCC(C)C)cc3c2CCCNCc2ccccc2)cc1 [Example 155]	
1000 to 5000 nM	COc1ccc(-c2nn3ccc(C(=O)N(CCC(C)C)CCC(C)C)cc3c2CCCN2CCC2)cc1 [Example 156]	
5000 to 15000 nM	CNCCCc1c(-c2ccc(OC)cc2)nn2ccc(C(=O)N(CCC(C)C)CCC(C)C)cc12 [Example 157]	
1000 to 5000 nM	COc1ccc(-c2nn3ccc(C(=O)N(CCC(C)C)CCC(C)C)cc3c2/C=C/CN2CCCC(F)C2)cc1 (stereo not drawn) [Example 158]	
500 to 1000 nM	COc1ccc(-c2nn3ccc(C(=O)N(CCC(C)C)CCC(C)C)cc3c2/C=C/CN2CCCOCC2)cc1 [Example 159]	
1000 to 5000 nM	COc1ccc(-c2nn3ccc(C(=O)N(CCC(C)C)CCC(C)C)cc3c2CCCN2[C@H](C)CCC[C@@H]2C)cc1 [Example 160]	
1000 to 5000 nM	COc1ccc(-c2nn3ccc(C(=O)N(CCC(C)C)CCC(C)C)cc3c2CCCN2CCCC(F)C2)cc1 (stereo not drawn) [Example 161]	
500 to 1000 nM	COc1ccc(-c2nn3ccc(C(=O)N(CCC(C)C)CCC(C)C)cc3c2CCCN2CCCOCC2)cc1 [Example 162]	
1000 to 5000 nM	CCCNCCCc1c(-c2ccc(OC)cc2)nn2ccc(C(=O)N(CCC(C)C)CCC(C)C)cc12 [Example 163]	
< 500 nM	COc1ccc(-c2nn3ccc(C(=O)N(CCC(C)C)CCC(C)C)cc3c2CCCN2CCCCC2)cn1 [Example 164, N,N-diisopentyl-2-(6-methoxypyridin-3-yl)-3-(3-(piperidin-1-yl)propyl)pyrazolo[1,5-a]pyridine-5-carboxamide]	
< 500 nM	CN=C(c1ccn2nc(-c3ccccc3)c(CCCN3CCCCC3)c2c1)N(CCC(C)C)CCC(C)C [Example 165, N,N-diisopentyl-N′-methyl-2-phenyl-3-(3-(piperidin-1-yl)propyl)pyrazolo[1,5-a]pyridine-5-carboximidamide]	
1000 to 5000 nM	CCOc1ccc(-c2nn3ccc(C(=O)N(CCC(C)C)CCC(C)C)cc3c2CCCN2CCOCC2)cc1 [Example 166]	
5000 to 15000 nM	CC(C)CCN(CCC(C)C)C(=O)c1ccn2nc(C(=O)N3CCOCC3)c(/C=C/CN3CCCCC3)c2c1 [Example 167]	
500 to 1000 nM	COc1ccc(-c2nn3ccc(C(=O)N(CCC(C)C)CCC(C)C)cc3c2CCCN2CCCCC2C)cc1 (stereo not drawn) [Example 168]	
500 to 1000 nM	COc1ccc(-c2nn3ccc(C(=O)N(CCC(C)C)CCC(C)C)cc3c2/C=C/CN2CCCCC2C)cc1 (stereo not drawn) [Example 169]	
	Ac-Nle-Gly-Lys-D-Nal(2)-Arg-Trp-Gly-NH(2)	selectivity for MC4R as compared to MC3R [2]: 34 fold; activity in vivo [3]: active in vivo; blood-brain barrier crossing [4]: crossed the blood-brain barrier; selectivity for MC4R as compared to MC5R [5]: 109 fold
	Ac-Nle-Gly-Lys-D-Phe-Arg-Trp-Gly-NH(2) (Ac-[Nle]GK[dF]RWG-NH2; SMILES CCCC[C@H](NC(C)=O)C(=O)NCC(=O)N[C@@H](CCCCN)C(=O)N[C@H](Cc1ccccc1)C(=O)N[C@@H](CCCNC(=N)N)C(=O)N[C@@H](Cc1c[nH]c2ccccc12)C(=O)NCC(N)=O)	selectivity for MC4R as compared to MC3R [2]: 90 fold; activity in vivo [3]: active in vivo; blood-brain barrier crossing [4]: crossed the blood-brain barrier; selectivity for MC4R as compared to MC5R [5]: 110 fold
1000 to 5000 nM	N,N-Diisopentyl-2-(4-methoxyphenyl)-3-(3-(piperidin-1-yl)propyl)pyrazolo[1,5-a]pyrimidine-5-carboxamide [Example 89]	
